{
  "source": "patent US9938322B2",
  "about": "“β-hairpin peptidomimetics” (priority 2013, dated 2018)",
  "note": "Where a SMILES comes first, the peptide text is derived from it. [ ]: non-standard residue; d: D form. Phe(4-NH2) = Nc1ccc(C[C@H](N)C(=O)O)cc1; Pro(3S-OH) = O=C(O)[C@H]1NCC[C@@H]1O; Cha = N[C@@H](CC1CCCCC1)C(=O)O; aThr = C[C@H](O)[C@H](N)C(=O)O; Chg = N[C@H](C(=O)O)C1CCCCC1; Phg = N[C@H](C(=O)O)c1ccccc1; Tle = CC(C)(C)[C@H](N)C(=O)O; dDab = NCC[C@@H](N)C(=O)O; hSer = N[C@@H](CCO)C(=O)O; Orn = NCCC[C@H](N)C(=O)O; Dab = NCC[C@H](N)C(=O)O; Nva = CCC[C@H](N)C(=O)O; Dap = NC[C@H](N)C(=O)O",
  "data": [
    {"system": "human red blood cells (hRBC)", "experiment": "Hemolysis of human red blood cells", "format": "cell-based", "conditions": "red cells of human, 1 h, 100", "summary_of_the_method": "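Washed fresh human erythrocytes (20% v/v, about 0.9×10^9 cells/ml final) incubated with peptide at 100 μg/ml for 1 h at 37° C with shaking. Supernatant OD540 read; hemolysis expressed relative to 2.5% Triton X-100 (100%) and PBS with 0.001% acetic acid (0%).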", "units": {"Hemolysis at 100 μg/ml": "%"}, "values": [
      {"smiles": "CC(C)C[C@@H]1NC(=O)[C@@H]2[C@@H](O)CCN2C(=O)[C@H]2CCCN2C(=O)[C@H](CO)NC(=O)[C@H](C)NC(=O)[C@H](Cc2ccc(O)cc2)NC(=O)[C@H](CCN)NC(=O)[C@H](Cc2c[nH]c3ccccc23)NC(=O)[C@H](CCN)NC(=O)[C@@H](CCN)NC(=O)[C@H](CCCN)NC(=O)[C@H](CCN)NC(=O)[C@H](Cc2ccc(O)cc2)NC(=O)[C@H](CO)NC1=O", "note": "[Ex. 55] (cyclo(LSY[Dab][Orn][dDab][Dab]W[Dab]YAS[dP][Pro(3S-OH)]))", "Hemolysis at 100 μg/ml": 1},
      {"smiles": "CC(C)[C@@H]1NC(=O)[C@@H]2CCCN2C(=O)[C@H]2CCCN2C(=O)[C@H](CO)NC(=O)[C@H](C)NC(=O)[C@H](C(C)(C)C)NC(=O)[C@H](CCN)NC(=O)[C@H](Cc2c[nH]c3ccccc23)NC(=O)[C@H](CCN)NC(=O)[C@@H](CCN)NC(=O)[C@H](CCCN)NC(=O)[C@H](CCN)NC(=O)[C@H](CC2CCCCC2)NC(=O)[C@H](C)NC1=O", "note": "[compound 51] (cyclo(VA[Cha][Dab][Orn][dDab][Dab]W[Dab][Tle]AS[dP]P))", "Hemolysis at 100 μg/ml": 1},
      {"smiles": "CC(C)[C@@H]1NC(=O)[C@@H]2CCCN2C(=O)[C@H]2CCCN2C(=O)[C@H](CO)NC(=O)[C@H](C)NC(=O)[C@H](C2CCCCC2)NC(=O)[C@H](CCN)NC(=O)[C@H](Cc2c[nH]c3ccccc23)NC(=O)[C@H](CCN)NC(=O)[C@@H](CCN)NC(=O)[C@H](CCCN)NC(=O)[C@H](CCN)NC(=O)[C@H](Cc2ccc(O)cc2)NC(=O)[C@H](CO)NC1=O", "note": "[compound 90] (cyclo(VSY[Dab][Orn][dDab][Dab]W[Dab][Chg]AS[dP]P))", "Hemolysis at 100 μg/ml": 2},
      {"smiles": "CC(C)C[C@@H]1NC(=O)[C@@H]2CCCN2C(=O)[C@H]2CCCN2C(=O)[C@H]([C@@H](C)O)NC(=O)[C@H](CO)NC(=O)[C@H](C(C)(C)C)NC(=O)[C@H](CCN)NC(=O)[C@H](Cc2c[nH]c3ccccc23)NC(=O)[C@H](CCN)NC(=O)[C@@H](CCN)NC(=O)[C@H](CCCN)NC(=O)[C@H](CCN)NC(=O)[C@H](Cc2ccc(O)cc2)NC(=O)[C@H](C)NC1=O", "note": "[compound 131] (cyclo(LAY[Dab][Orn][dDab][Dab]W[Dab][Tle]ST[dP]P))", "Hemolysis at 100 μg/ml": 0.1},
      {"smiles": "CC[C@H](C)[C@@H]1NC(=O)[C@@H]2CCCN2C(=O)[C@H]2CCCN2C(=O)[C@H](CO)NC(=O)[C@H](C)NC(=O)[C@H](C(C)(C)C)NC(=O)[C@H](CCN)NC(=O)[C@H](Cc2c[nH]c3ccccc23)NC(=O)[C@H](CCN)NC(=O)[C@@H](CCN)NC(=O)[C@H](CCCN)NC(=O)[C@H](CCN)NC(=O)[C@H](Cc2ccc(O)cc2)NC(=O)[C@H]([C@H](C)O)NC1=O", "note": "[compound 86] (cyclo(I[aThr]Y[Dab][Orn][dDab][Dab]W[Dab][Tle]AS[dP]P))", "Hemolysis at 100 μg/ml": 1},
      {"smiles": "CC(C)C[C@@H]1NC(=O)[C@@H]2CCCN2C(=O)[C@H]2CCCN2C(=O)[C@H](CO)NC(=O)[C@H](C)NC(=O)[C@H](C(C)(C)C)NC(=O)[C@H](CCO)NC(=O)[C@H](Cc2c[nH]c3ccccc23)NC(=O)[C@H](CCN)NC(=O)[C@@H](CCN)NC(=O)[C@H](CCCN)NC(=O)[C@H](CCN)NC(=O)[C@H](Cc2ccc(O)cc2)NC(=O)[C@H](CO)NC1=O", "note": "[compound 37] (cyclo(LSY[Dab][Orn][dDab][Dab]W[hSer][Tle]AS[dP]P))", "Hemolysis at 100 μg/ml": 1},
      {"smiles": "CC[C@H](C)[C@@H]1NC(=O)[C@@H]2CCCN2C(=O)[C@H]2CCCN2C(=O)[C@H](CO)NC(=O)[C@H](C)NC(=O)[C@H](C(C)(C)C)NC(=O)[C@H](CCN)NC(=O)[C@H](Cc2c[nH]c3ccccc23)NC(=O)[C@H](CCN)NC(=O)[C@@H](CCN)NC(=O)[C@H](CCCN)NC(=O)[C@H](CCN)NC(=O)[C@H](Cc2ccc(O)cc2)NC(=O)[C@H](CC(N)=O)NC1=O", "note": "[compound 85] (cyclo(INY[Dab][Orn][dDab][Dab]W[Dab][Tle]AS[dP]P))", "Hemolysis at 100 μg/ml": 0},
      {"smiles": "C[C@@H]1NC(=O)[C@H](C(C)(C)C)NC(=O)[C@H](CCN)NC(=O)[C@H](Cc2c[nH]c3ccccc23)NC(=O)[C@H](CCN)NC(=O)[C@H](CCN)NC(=O)[C@H](CCCN)NC(=O)[C@H](CCN)NC(=O)[C@H](CC2CCCCC2)NC(=O)[C@H](CO)NC(=O)[C@H](Cc2c[nH]c3ccccc23)NC(=O)[C@@H]2CCCN2C(=O)[C@H]2CCCN2C(=O)[C@H](CO)NC1=O", "note": "[Ex. 1] (cyclo(WS[Cha][Dab][Orn][Dab][Dab]W[Dab][Tle]AS[dP]P))", "Hemolysis at 100 μg/ml": 1},
      {"smiles": "CC[C@H](C)[C@@H]1NC(=O)[C@@H]2CCCN2C(=O)[C@H]2CCCN2C(=O)[C@H](CO)NC(=O)[C@H](C)NC(=O)[C@H](C(C)(C)C)NC(=O)[C@H](CCN)NC(=O)[C@H](Cc2c[nH]c3ccccc23)NC(=O)[C@H](CCN)NC(=O)[C@@H](CCN)NC(=O)[C@H](CCCN)NC(=O)[C@H](CCN)NC(=O)[C@H](Cc2ccc(N)cc2)NC(=O)[C@H](CO)NC1=O", "note": "[compound 83] (cyclo(IS[Phe(4-NH2)][Dab][Orn][dDab][Dab]W[Dab][Tle]AS[dP]P))", "Hemolysis at 100 μg/ml": 0.5},
      {"smiles": "CC(C)C[C@@H]1NC(=O)[C@@H]2CCCN2C(=O)[C@H]2CCCN2C(=O)[C@H](CO)NC(=O)[C@H](C)NC(=O)[C@H](Cc2c[nH]c3ccccc23)NC(=O)[C@H](CCN)NC(=O)[C@H](Cc2c[nH]c3ccccc23)NC(=O)[C@H](CCN)NC(=O)[C@@H](CCN)NC(=O)[C@H](CCCN)NC(=O)[C@H](CCN)NC(=O)[C@H](Cc2c[nH]c3ccccc23)NC(=O)[C@H](CO)NC1=O", "note": "[compound 109] (cyclo(LSW[Dab][Orn][dDab][Dab]W[Dab]WAS[dP]P))", "Hemolysis at 100 μg/ml": 2},
      {"smiles": "CC(C)[C@@H]1NC(=O)[C@H](CCN)NC(=O)[C@H](Cc2c[nH]c3ccccc23)NC(=O)[C@H](CCN)NC(=O)[C@@H](CCN)NC(=O)[C@H](CCCN)NC(=O)[C@H](CCN)NC(=O)[C@H](Cc2ccc(O)cc2)NC(=O)[C@H](CO)NC(=O)[C@H](Cc2c[nH]c3ccccc23)NC(=O)[C@@H]2CCCN2C(=O)[C@H]2CCCN2C(=O)[C@H](CO)NC(=O)[C@H](C)NC1=O", "note": "[compound 72] (cyclo(WSY[Dab][Orn][dDab][Dab]W[Dab]VAS[dP]P))", "Hemolysis at 100 μg/ml": 0},
      {"smiles": "CC(C)C[C@@H]1NC(=O)[C@@H]2CCCN2C(=O)[C@H]2CCCN2C(=O)[C@H](CO)NC(=O)[C@H](CO)NC(=O)[C@H](C(C)(C)C)NC(=O)[C@H](CCN)NC(=O)[C@H](Cc2c[nH]c3ccccc23)NC(=O)[C@H](CCN)NC(=O)[C@@H](CCN)NC(=O)[C@H](CCCN)NC(=O)[C@H](CCN)NC(=O)[C@H](Cc2ccc(O)cc2)NC(=O)[C@H](C)NC1=O", "note": "[compound 130] (cyclo(LAY[Dab][Orn][dDab][Dab]W[Dab][Tle]SS[dP]P))", "Hemolysis at 100 μg/ml": 0.2},
      {"smiles": "CC(C)C[C@@H]1NC(=O)[C@@H]2CCCN2C(=O)[C@H]2CCCN2C(=O)[C@H](CO)NC(=O)[C@H](C)NC(=O)[C@H](c2ccccc2)NC(=O)[C@H](CCN)NC(=O)[C@H](Cc2c[nH]c3ccccc23)NC(=O)[C@H](CCN)NC(=O)[C@@H](CCN)NC(=O)[C@H](CCCN)NC(=O)[C@H](CCN)NC(=O)[C@H](Cc2ccc(O)cc2)NC(=O)[C@H](CO)NC1=O", "note": "[compound 107] (cyclo(LSY[Dab][Orn][dDab][Dab]W[Dab][Phg]AS[dP]P))", "Hemolysis at 100 μg/ml": 2},
      {"smiles": "CC(C)C[C@@H]1NC(=O)[C@@H]2CCCN2C(=O)[C@H]2CCCN2C(=O)[C@H](CO)NC(=O)[C@H](C)NC(=O)[C@H](C(C)C)NC(=O)[C@H](CCN)NC(=O)[C@H](Cc2c[nH]c3ccccc23)NC(=O)[C@H](CCN)NC(=O)[C@@H](CCN)NC(=O)[C@H](CCCN)NC(=O)[C@H](CCN)NC(=O)[C@H](Cc2ccc(O)cc2)NC(=O)[C@H](CO)NC1=O", "note": "[compound 35] (cyclo(LSY[Dab][Orn][dDab][Dab]W[Dab]VAS[dP]P))", "Hemolysis at 100 μg/ml": 1},
      {"smiles": "CC(C)C[C@@H]1NC(=O)[C@@H]2CCCN2C(=O)[C@H]2CCCN2C(=O)[C@H](CO)NC(=O)[C@H](C)NC(=O)[C@H](C(C)(C)C)NC(=O)[C@H](CCN)NC(=O)[C@H](Cc2c[nH]c3ccccc23)NC(=O)[C@H](CCN)NC(=O)[C@H](CCN)NC(=O)[C@H](CCCCN)NC(=O)[C@H](CCN)NC(=O)[C@H](Cc2ccc(O)cc2)NC(=O)[C@H](CO)NC1=O", "note": "[compound 26] (cyclo(LSY[Dab]K[Dab][Dab]W[Dab][Tle]AS[dP]P))", "Hemolysis at 100 μg/ml": 1},
      {"smiles": "CC(C)C[C@@H]1NC(=O)[C@@H]2CCCN2C(=O)[C@H]2CCCN2C(=O)[C@H](CO)NC(=O)[C@H](C)NC(=O)[C@H](C(C)(C)C)NC(=O)[C@H](CCN)NC(=O)[C@H](Cc2c[nH]c3ccccc23)NC(=O)[C@H](CCN)NC(=O)[C@@H](CCN)NC(=O)[C@H](CCCN)NC(=O)[C@H](CCN)NC(=O)[C@H](Cc2c[nH]c3ccccc23)NC(=O)[C@H](CO)NC1=O", "note": "[compound 33] (cyclo(LSW[Dab][Orn][dDab][Dab]W[Dab][Tle]AS[dP]P))", "Hemolysis at 100 μg/ml": 3.5},
      {"smiles": "CCC[C@@H]1NC(=O)[C@@H]2CCCN2C(=O)[C@H]2CCCN2C(=O)[C@H](CO)NC(=O)[C@H](C)NC(=O)[C@H](C2CCCCC2)NC(=O)[C@H](CCN)NC(=O)[C@H](Cc2c[nH]c3ccccc23)NC(=O)[C@H](CCN)NC(=O)[C@@H](CCN)NC(=O)[C@H](CCCN)NC(=O)[C@H](CCN)NC(=O)[C@H](CC2CCCCC2)NC(=O)[C@H](CO)NC1=O", "note": "[compound 134] (cyclo([Nva]S[Cha][Dab][Orn][dDab][Dab]W[Dab][Chg]AS[dP]P))", "Hemolysis at 100 μg/ml": 8},
      {"smiles": "CC(C)C[C@@H]1NC(=O)[C@@H]2CCCN2C(=O)[C@H]2CCCN2C(=O)[C@H](CN)NC(=O)[C@H](C)NC(=O)[C@H](C(C)(C)C)NC(=O)[C@H](CCO)NC(=O)[C@H](Cc2c[nH]c3ccccc23)NC(=O)[C@H](CCN)NC(=O)[C@@H](CCN)NC(=O)[C@H](CCCN)NC(=O)[C@H](CCN)NC(=O)[C@H](Cc2ccc(O)cc2)NC(=O)[C@H](CO)NC1=O", "note": "[compound 42] (cyclo(LSY[Dab][Orn][dDab][Dab]W[hSer][Tle]A[Dap][dP]P))", "Hemolysis at 100 μg/ml": 1}
    ]}
  ]
}
